From publication PMC9321663, “The DevTox Germ Layer Reporter Platform: An Assay Adaptation of the Human Pluripotent Stem Cell Test” (Toxics, 2022)
Where two headings read alike, the source gives them in different places. Starred links: 1 amine or outer side, 2 acyl side, 3 side chain; linkers in the order of their positions; H or OH if unused. Positions of bridges follow the written chain, without caps; N, C: chain ends. Non-standard residues stand in square brackets, D forms with d. Residues, ends and D or L forms follow the SMILES beside them. Chains are numbered I, II in the order given. Actinocin(9to1) = Cc1c2oc3c(C)ccc(C(=O)[*:1])c3nc-2c(C(=O)[*:2])c(N)c1=O; NMeV = CN[C@H](C(=O)O)C(C)C; Sar = CNCC(=O)O

Legend:
[1] = system: SOX2 (ectoderm and pluripotency marker) in RUES2-GLR cells; test: DevTox GLR-Endo assay: increase in percent SOX2-positive cells (AEID 3095, Sox2_up); conditions: for AC50 / Emax: Homo sapiens; for AC50: read-out: ga (winning model); for Emax: read-out: tp (winning model); for MAX_MEAN: tcpl plot AEID3095, maximum mean response; for MAX_MED: tcpl plot AEID3095, maximum median response
[2] = system: SOX17 (endoderm marker) in RUES2-GLR cells; test: DevTox GLR-Endo assay: decrease in percent SOX17-positive cells (AEID 3094, Sox17_dn); conditions: for Hit Call: Table S2, SOX17-positive cells, cutoff 3*bmad; for DevTox ACC: Table S2, percent SOX17-positive cells; for HIT−CALL: tcpl plot AEID3094, COFF 20.3
Method in brief: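 RUES2-GLR cells under endoderm differentiation exposed to test chemicals for 48 h in total, with 0.2% DMSO solvent control and SB431542 (1 µM) as developmental-toxicant control. Endpoints: decrease in total cell count and in percent SOX17-positive cells; n = 4 biological replicates minimum.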

[3] = system: SOX17 in H9 human ESC line; conditions: SOX17 half-maximal inhibition concentration; read-out: hPST IC50; cited from earlier work
[4] = cited from earlier work; for Development Toxicant Classification: Table S2; for Classification: developmental toxicant classification (Teratogen / Non-Teratogen) of reference and training chemicals, ref DOI per chemical: 10.1093/toxsci/kft239, 10.1093/toxsci/kfaa014, 10.1177/026119290203000204, 10.1038/s41598-020-59542-x; for DT Class.: developmental toxicant classification, chemicals common with hPST
in vitro = conditions: human
RUES2-GLR cells = test: DevTox GLR-Endo assay: decrease in total cell count, cytotoxicity (AEID 3098, CellCount_dn); conditions: for Emax: Homo sapiens, read-out: Cell Count % Max Inhibition
H9 human ESC line = conditions: cited from earlier work
[5] = system: SOX17 (endoderm marker) in RUES2-GLR cells; test: DevTox GLR-Endo assay: increase in percent SOX17-positive cells (AEID 3093, Sox17_up); assay type: cell-based, human; conditions: for Emax: Homo sapiens; for HIT−CALL: tcpl plot AEID3093, COFF 20.3
Description: The total test chemical incubation period was 48 h.
(Supplementary Materials).

[6] = Homo sapiens, 48 h, read-out: DevTox-GLR Endo AC50 (µM)
[7] = Homo sapiens, read-out: DevTox % Max Inhibition
[8] = Homo sapiens, read-out: MAX_MEAN
[9] = Homo sapiens, read-out: MAX_MED
[10] = Homo sapiens, read-out: ga (winning model)
[11] = Homo sapiens, read-out: tp (winning model)
[12] = cytotoxicity half-maximal concentration
[13] = tcpl plot AEID3093, maximum mean response, read-out: MAX_MEAN
[14] = tcpl plot AEID3093, maximum median response, read-out: MAX_MED
[15] = Homo sapiens, 48 h, read-out: DevTox-GLR Endo AC50 (µM), SOX17 half-maximal activity concentration, 48 h exposure
[16] = Homo sapiens, read-out: ga (winning model), tcpl plot AEID3094, gain parameter of winning curve fit (log concentration, µM axis), hit calls only (converted)
[17] = RUES2-GLR cells under directed endoderm differentiation

| Structure (SMILES) | AC50 [1] [µM] | Emax [1] [%] | MAX_MEAN [1] [Percent Activity] | MAX_MED [1] [Percent Activity] | Emax [2, 7] [%] | Emax [2, 8] [%] | Emax [2, 9] [%] | Emax [2, 11] [%] | Hit Call [2] | DevTox ACC ([2]; 48 h exposure) [µM] | HIT−CALL [2] | IC50 [3] [µM] | Development Toxicant Classification [4] | Classification [4] | DT Class. [4] | Emax (RUES2-GLR cells) [%] | hPST TC50 (H9 human ESC line; [12]) [µM] | hPST TC50 (H9 human ESC line; hPST cytotoxicity) [µM] | Emax [5, 13] [%] | HIT−CALL [5] | also measured |
| --- | --- | --- | --- | --- | --- | --- | --- | --- | --- | --- | --- | --- | --- | --- | --- | --- | --- | --- | --- | --- | --- |
| NC(=O)c1ccc(N)nc1 [6-Aminonicotinamide, 6−aminopyridine−3−carboxamide] | 309 | 9.6 | 4.77 | 4.39 | 101 | 101 | 101 | 101 | Positive | 12.5605 | 1 | 7 | Positive | Teratogen | Pos | 89.9 | 8 | 8 | 2.7 | 0 | AC50 [2, 6]: 16.6 µM; AC50 [2, 10]: 16.6 µM; SOX17 ACC relative to cytotoxic concentration (in words) ([2]; training set, ACC versus cell count ACC): below cytotoxic concentrations; CC50 (in vitro): 23.9 µM; Cell Count ACC (RUES2-GLR cells; Table S2, 48 h exposure): 20.3443 µM; Emax [5, 14]: 3% |
| Cc1c2oc3c(C)ccc(C(=O)N[C@@H]4C(=O)N[C@H](C(C)C)C(=O)N5CCC[C@H]5C(=O)N(C)CC(=O)N(C)[C@@H](C(C)C)C(=O)O[C@@H]4C)c3nc-2c(C(=O)N[C@@H]2C(=O)N[C@H](C(C)C)C(=O)N3CCC[C@H]3C(=O)N(C)CC(=O)N(C)[C@@H](C(C)C)C(=O)O[C@@H]2C)c(N)c1=O [Actinomycin D] (I: T[dV]P[Sar][NMeV] / II: T[dV]P[Sar][NMeV]; ester I:1-I:C, II:1-II:C; linker I:N-II:N via Actinocin(9to1)) | 0.1 | 24 | 20.2 | 20.2 | 101 | 102 | 101 | 101 | Positive | 2.881e-05 | 1 | < 0.01 | Positive | Teratogen | Pos | 96 | <0.01 | < 0.01 |  | 0 | SOX17 ACC relative to cytotoxic concentration (in words) [2]: below cytotoxic concentrations; AC50 [2, 6]: 3.7e-05 µM; AC50 [2, 10]: 3.63e-05 µM; CC50 (in vitro): 0.00048 µM; Cell Count ACC (RUES2-GLR cells; Table S2, 48 h exposure): 0.0003574 µM; Emax ([5]; read-out: MAX_MEAN): 6.35%; Emax ([5]; read-out: MAX_MED): 3.62% |
| Cc1nc(Nc2ncc(C(=O)Nc3c(C)cccc3Cl)s2)cc(N2CCN(CCO)CC2)n1 [Dasatinib] | 148 | 85.8 | 63.7 | 64.4 | 102 | 102 | 102 | 102 | Positive | 0.3299 | 1 | < 1 | Positive | Teratogen | Pos | 96 | <1 | < 1 | 5.98 | 0 | AC50 [2, 15]: 0.72 µM; AC50 [2, 16]: 0.721 µM; CC50 at 48 h (in vitro): 0.05 µM; Cell Count ACC (RUES2-GLR cells; human, 48 h): 0.005325 µM; Emax [5, 14]: 3.77% |
| c1cc(-c2cnn3cc(-c4ccc(OCCN5CCCCC5)cc4)cnc23)ccn1 [Dorsomorphin] | 10.7 | 38.7 | 16.8 | 17 | 99.6 | 99.4 | 99.6 | 114 | Positive | 8.65 | 1 | 0.3 | Positive | Teratogen | Pos | 95.1 | 2.4 | 2.4 | 9.04 | 0 | AC50 [2, 15]: 17.1 µM; AC50 [2, 16]: 17 µM; CC50 at 48 h (in vitro): 16.7 µM; Cell Count ACC (RUES2-GLR cells; human, 48 h): 6.307 µM; Emax [5, 14]: 8.93% |
| COc1ccc2nc([S@@+]([O-])Cc3ncc(C)c(OC)c3C)[nH]c2c1 [Esomeprazole] | 69.2 | 17.4 | 23.9 | 21.6 | 101 | 101 | 101 | 123 | Positive | 12.9286 | 1 | 32 | Negative | Non-Teratogen | Neg | 94 | 101 | 101 | 0.101 | 0 | SOX17 ACC relative to cytotoxic concentration (in words) [2]: below cytotoxic concentrations; hit call designation (in words) ([2]; DevTox GLR-Endo prediction against developmental toxicant classification): false positive; AC50 [2, 15]: 34 µM; AC50 [2, 16]: 33.9 µM; Emax ([2]; Homo sapiens, read-out: maximum observed effect level class (% max inhibition)): 80 to 100%; AC50 ([2]; read-out: DevTox-GLR Endo AC50, SOX17 half-maximal activity concentration, 48 h exposure): 33.8 µM; CC50 at 48 h (in vitro; [17]): 38.5 µM; Cell Count ACC (RUES2-GLR cells; human, 48 h): 28.1982 µM; Emax [5, 14]: 1.23% |
| CNC(=O)c1cc(Oc2ccc(NC(=O)Nc3ccc(Cl)c(C(F)(F)F)c3)cc2)ccn1 [Sorafenib] | 0.748 | 8.9 | 13.6 | 11.9 | 102 | 102 | 102 | 101 | Positive | 0.5004 | 1 | < 2 | Positive | Teratogen | Pos | 95.8 | <2 | < 2 | 8.73 | 0 | AC50 [2, 15]: 0.62 µM; AC50 [2, 16]: 0.618 µM; CC50 at 48 h (in vitro; [17]): 0.61 µM; Cell Count ACC (RUES2-GLR cells; Table S2, 48 h exposure): 0.4993 µM; Emax [5, 14]: 9.19% |
| CCN(CC)CCNC(=O)c1c(C)[nH]c(/C=C2\C(=O)Nc3ccc(F)cc32)c1C [Sunitinib] | 5.41 | 6.74 | 3 | 3.23 | 102 | 102 | 102 | 101 | Positive | 0.5184 | 1 | 2.8 | Positive | Teratogen | Pos | 97.7 | 3.6 | 3.6 | 0.538 | 0 | SOX17 ACC relative to cytotoxic concentration (in words) [2]: below cytotoxic concentrations; AC50 [2, 15]: 0.63 µM; AC50 [2, 16]: 0.628 µM; CC50 at 48 h (in vitro; [17]): 1.26 µM; Cell Count ACC (RUES2-GLR cells; Table S2, 48 h exposure): 0.6087 µM; Emax [5, 14]: 0.596% |
| COc1cc2c(Nc3ccc(Br)cc3F)ncnc2cc1OCC1CCN(C)CC1 [Vandetanib] | 7.23 | 23.1 | 10.9 | 10.8 | 102 | 102 | 102 | 101 | Positive | 4.123 | 1 | 3.5 | Positive | Teratogen | Pos | 98.3 | 4.4 | 4.4 | 7.33 | 0 | AC50 [2, 15]: 4.9 µM; AC50 [2, 16]: 4.91 µM; CC50 at 48 h (in vitro; [17]): 4.32 µM; Cell Count ACC (RUES2-GLR cells; Table S2, 48 h exposure): 2.124 µM; Emax [5, 14]: 9.78% |
